Assay results from patent EP1733731A1, “New uses of Glycerol derivatives in particular in cosmetics” (AGRO INDUSTRIE RECHERCHES ET DEVELOPPEMENTS (A.R.D.), priority 2005, dated 2006).

Target: T1, MMP-1 (Homo sapiens, UniProt P03956)
T1 construct: La proMMP-1 recombinante (75 ng/mL) est activée par l'APMA
T1 sequence (P03956 100-469): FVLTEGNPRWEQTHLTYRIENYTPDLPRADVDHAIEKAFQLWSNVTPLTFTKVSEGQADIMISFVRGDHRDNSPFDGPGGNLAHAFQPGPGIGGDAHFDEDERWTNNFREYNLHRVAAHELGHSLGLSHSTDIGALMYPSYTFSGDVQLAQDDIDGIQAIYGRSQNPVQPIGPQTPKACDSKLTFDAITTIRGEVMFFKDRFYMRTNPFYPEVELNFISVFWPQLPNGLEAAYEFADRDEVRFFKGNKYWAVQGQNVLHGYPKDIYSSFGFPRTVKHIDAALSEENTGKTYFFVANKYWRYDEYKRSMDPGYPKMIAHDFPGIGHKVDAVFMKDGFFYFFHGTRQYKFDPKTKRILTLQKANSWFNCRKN
Experiment: MMP-1 activity on fluorescent synthetic substrate (FRET)
Format: biochemical
Text: La mesure de l'activité enzymatique des MMPs est basée sur le principe du transfert d'énergie par résonance, RET ou transfert d'énergie de fluorescence par résonance, FRET. Le substrat est constitué d'un oligopeptide comportant un groupement fluorescent (F), donneur d'énergie et un groupement éteignant (Q, pour quenching), accepteur d'énergie. Après hydrolyse, le groupement éteignant est libéré, permettant de mesurer l'augmentation de fluorescence.
De nombreux couples fluorescent/éteignant ont été développés pour la mesure de l'activité enzymatique des MMPs comme le couple 7-méthoxycoumarine-4-acétyl (Mca)/dinitrophenyl-diaminopropionyl (Dnp).
Après activation, la MMP-1 est pré-incubée à +20°C pendant 10 minutes en absence ou en présence d'effecteurs dans un tampon Tris-HCl 50 mM, NaCl 150 mM, CaCl2 5 mM pH 7,5 en plaque 96 puits noire dont les sites de liaisons non-spécifiques ont été bloqués à l'aide d'une solution de SAB à 0,1% (p/v) dans le même tampon. La réaction est initiée par addition de 10 µL de substrat à la concentration finale de 2 µM dans un volume réactionnel final de 200 µL. Les variations de fluorescence (λ excitation : 360 nm, λ émission : 465 nm) au cours du temps sont suivies à l'aide d'un spectrofluorimètre lecteur de plaque HTS 7000+ à +20°C. La courbe représentant la fluorescence (en RFU) en fonction du temps (en minutes) est tracée.
Les intensités de fluorescence obtenues permettent d'estimer là vitesse initiale de l'enzyme en absence d'effecteur (V0) et en présence d'inhibiteur (Vi). […]
La proMMP-1 recombinante (75 ng/mL) est activée par l'APMA (Acide Phényl Mercurique Acétate). […] Le clivage de ce substrat est estimé par mesure de la fluorescence libérée (λexc = 360 nm; λem = 465 nm) à l'aide d'un spectrofluorimètre lecteur de plaques de type Perkin Elmer HTS 7000 Plus. Les intensités de fluorescence obtenues permettent d'estimer la vitesse initiale de l'enzyme en l'absence d'effecteur (Vo) et en présence d'inhibiteur (Vi). […]

inhibition at 25 µg/mL (25 µg/mL, read-out: Inhibition de MMP-1 (%)): 42 ± 0.87% | Action sur l'activité de la MMP-1 (Vi/V0) à isoconcentration (at isoconcentration): 168 | Augmentation d'activité (inhibition of type I collagenase, increase from one fractionation step to the next): 2,72
SMILES: CCCCC/C=C\C/C=C\CCCCCCCCOC[C@H](CO[C@@H]1O[C@H](COC(=O)CCCCCCCCCCCCCCC)[C@H](O)[C@H](O)[C@H]1O)OCCCCCCCC/C=C\C/C=C\CCCCC [ED23-11, 1,2-di-O-linoléyl-3-O-[6'-O-palmitoyl-β-D-galactopyranosyl]-sn-glycérol]
